Key:
Format in all cases: cell-based, human
[1] = system: P21 (CDKN1A) gene expression in HUVEC; assay: Real-time PCR of CDKN1A (P21) gene, normal cells; conditions: 24 h, reference gene HPRT, 2^-ΔΔCt vs control
Excerpt: In order to isolate of total RNA from treated or untreated cells was used TRIzol reagent (Invitrogen)-a monophasic solution of phenol and guanidine isothiocyanate. During the isolation phases, the TRIzol reagent maintains RNA integrity, while disrupting cells and dissolving cell components. The addition of chloroform followed by centrifugation ensures the separation phase of the solution into an aqueous phase and an organic phase. RNA remains in the aqueous phase and is recovered by isopropanol precipitation. The RNA pellet washed once with 75% ice-cold ethanol and entrifuged at 10,000× g for 5 min at 4 °C. The […] is redissolved in nuclease-free water and incubating in a 60 °C water bath for 10 min. The concentration of isolated RNA was assessed using a NanoDrop spectrophotometer ([…], Montchanin, DE, USA). RNA purity was determined by A260/A280 ratios (an […] ratio as close as possible to 2 indicates the presence of highly purified RNA). Reverse transcription of messenger RNA molecules was performed using the High-capacity cDNA Reverse Transcription Kit from Applied Biosystems, using non-specific, randomic primers, following the manufacturer's instructions (Table 1). […] The obtained cDNA was stored at 4 °C and further used in the amplification reaction Real-Time PCR (RT-PCR). […] The samples were analyzed using the formula 2^-ΔΔCt.

PE/CA-PJ49 tumor cells = assay: MTT drug sensitivity (viability) assay, tumor cells; conditions: 24 h; for IC50: Homo sapiens; for IC50 / IC 25: MTT; for Selectivity Index (SI): IC50 in HUVEC / IC50 in PE/CA-PJ49
Procedure: (§1) The MTT assay is based on the ability of viable cells to reduce the reagent 3-(4,5-dimethylthiazol-2-yl)-2,5-diphenyltetrazolium bromide to colored formazan compounds [48]. Because the transformation is only possible in viable cells, the amount of blue formazan is proportional to the number of viable cells and thus, a linear dependence exists between cell activity and absorbance. Cells were seeded in triplicate in 96-well plates at a density of 5000 cells/well, incubated at 37 °C for 24 h. […] After the incubation period, 20 μL MTT (5 mg/mL in PBS) was added and further incubated for 4 h. The supernatant was removed, and the formazan product was analyzed spectrophotometrically (570 nm) after dissolution in DMSO. Wells without cells serve as a blank, and their absorbance was subtracted from the other results. Untreated cells were used as control and their viability was assumed as 100%. Results were expressed as mean values of three determinations ± standard deviation (SD). Data are presented as percent of cell viability and compared to untreated [Viability% = (T − B)/(U − B) × 100, {where T = absorbance of treated cells; U = absorbance of untreated cells, B = absorbance of blank}]. Once percent viability was obtained, the drug response curve was generated, and inhibitory concentration (IC50 and IC25) was calculated using GraphPad Prism version 5.01 [49].
(§2) SI values of more than 2 were considered as indicative of high selectivity.
(§3) The anticancer cytotoxic activity in vitro was evaluated by the MTT assay. […] The most widely used and informative measure of a drug’s efficacy is IC50-the half-maximal inhibitory concentration. IC50 was determined at half of the difference between the maximum (plateau) and minimum absorbance values, by plotting the absorbance value at 570 nm (Y axis) versus the concentration of the compound analysed (X axis). The IC50 values were reported as a mean of three independent experiments ± standard deviation (S.D.).

[2] = system: p21 protein (CIP1/CDKN1A) expression in HUVEC; assay: Total p21 protein ELISA in cell lysates, normal cells; conditions: 24 h; for n-fold p21 Protein Expression HUVEC: vs control
Procedure: (§4) After incubation, cells were washed twice with ice-cold PBS, scraped, pelleted and lysed in RIPA buffer (Pierce) supplemented with protease inhibitor cocktail (Roche) and phosphatase inhibitor (Roche) for 30 min on ice. The lysates were transfered into microcentrifuge tubes and centrifuged at 14,000× g for 5 min at 4 °C followed by sonication (10–15 s × 3). The supernatants were collected into clean microcentrifuge tubes and stored at −80 °C. Lysates protein concentration were quantified by BCA protein assay kit (Thermo Scientific) and aliquots of 50 μg of total cell lysate were used for ELISA assay.
(§5) DuoSetR IC ELISA-Human Total p21/CIP1/CDKN1A(: DYC1047-2) was purchased from R&D Systems Inc. and contains the basic components required for the development of sandwich ELISAs to measure human p21 protein also known as CIP1 and CDKN1A in cell lysates. An immobilized capture antibody specifically binds human p21. After washing away unbound material, a biotinylated detection antibody specific for human p21 is used to detect the captured protein, utilizing a standard Streptavidin-HRP format. All experiments were performed in triplicates and absorbance was measured at λ = 450 nm using a Dynex plate reader.
(§6) In cancer development and evolution p21 protein might acts as an oncogene or tumor suppressor and for this reason it could be an important player in processes such as the cancer aggressiveness or the response to chemotherapy. In this study, using ELISA assay we analyzed the expression level of p21 in the tumor cells (PE-CA/PJ49) compared to a normal cells (HUVEC).

[3] = system: p21 protein (CIP1/CDKN1A) expression in PE/CA-PJ49; assay: Total p21 protein ELISA in cell lysates, tumor cells; conditions: 24 h; for n-fold p21 Protein Expression PE/CA-PJ49: vs control
Procedure: as §4, §5, §6

HUVEC normal cells = assay: MTT drug sensitivity (viability) assay, normal cells; conditions: 24 h; for IC 25 / IC50: MTT; for IC50: Homo sapiens
Procedure: as §1, §2, §3

In the case of `Oc1ccc(C=Cc2cc(O)cc(O)c2)cc1` [RSV, 3,5,4′-trihydroxystilbene], the “n-fold P21 gene expression HUVEC” value ([1]; 40 μM RSV) is reported as 0.36, the IC50 (PE/CA-PJ49 tumor cells; PE/CA-PJ49) is reported as 46.8 ± 2.6 µM and the “Selectivity Index (SI)” value (PE/CA-PJ49 tumor cells) is reported as 2.36. For the same molecule, the “IC 25” value (PE/CA-PJ49 tumor cells; PE/CA-PJ49) was 17.6 ± 1.5 µM, the “cell viability (MTT)” value (PE/CA-PJ49 tumor cells; PE/CA-PJ49, RSV 40 μM vs untreated cells) was “significantly affected” and the “p21 pg/mL HUVEC” value ([2]; 40 μM RSV) was 148 pg/mL. The “n-fold p21 Protein Expression HUVEC” value ([2]; 40 μM RSV) was 0.81, the “p21 pg/mL PE/CA-PJ49” value ([3]; 40 μM RSV) was 1550 pg/mL and the “n-fold p21 Protein Expression PE/CA-PJ49” value ([3]; 40 μM RSV) was 2.48. For the same molecule, the “IC 25” value (HUVEC normal cells) was 40.6 ± 3.3 µM, the “cell viability (MTT)” value (HUVEC normal cells; RSV 40 μM vs untreated cells) was “significantly affected” and the IC50 (HUVEC normal cells) was 110 ± 8.6 µM.

`COc1cc(/C=C/C(=O)CC(=O)/C=C/c2ccc(O)c(OC)c2)ccc1O` [CRM, Curcumin] was tested, and the “n-fold P21 gene expression HUVEC” value ([1]; 15 μM CRM) was 1.39, the “cell viability (MTT)” value (PE/CA-PJ49 tumor cells; 15 μM CRM, PE/CA-PJ49 vs HUVEC) was “reduced tumor cell viability compared to normal cells HUVEC” and the IC50 (PE/CA-PJ49 tumor cells; PE/CA-PJ49) was 16.3 ± 3.4 µM. The “Selectivity Index (SI)” value (PE/CA-PJ49 tumor cells) was 3.66, the “IC 25” value (PE/CA-PJ49 tumor cells; PE/CA-PJ49) was 7.9 ± 1.8 µM and the “p21 pg/mL HUVEC” value ([2]; 15 μM CRM) was 221 pg/mL. For the same molecule, the “n-fold p21 Protein Expression HUVEC” value ([2]; 15 μM CRM) was 1.21, the “p21 pg/mL PE/CA-PJ49” value ([3]; 15 μM CRM) was 941 pg/mL and the “n-fold p21 Protein Expression PE/CA-PJ49” value ([3]; 15 μM CRM) was 1.51. For the same molecule, the “IC 25” value (HUVEC normal cells) was 19.2 ± 2.1 µM and the IC50 (HUVEC normal cells) was 59.3 ± 6.1 µM.

Source: PMC7551591, “The Effect of Resveratrol or Curcumin on Head and Neck Cancer Cells Sensitivity to the Cytotoxic Effects of Cisplatin” (Nutrients, 2020)
